Here are results for 47 molecules from article PMC12155888, “Design, Synthesis, and Antitumor Biological Evaluation of Galaxamide and Its Analogs” (Molecules, 2025).

Values joined by “and” are separate entries in the source; they are usually repeats but may differ in a detail not shown here. Identical values can stand only once. Like-named read-outs stand apart in the source and are kept apart here.

For data set [1] the following is noted: amide bond; 15-membered ring; PyBOP/DMAP; MeCN; 4.3 mM.
Data set [2] is described as follows: head-to-tail macrolactamisation of free linear pentapeptide 10 (H-NMeAA...Leu-OH), PyBOP (2 equiv), DMAP (3 equiv); Route E: peptide solution (4.3 mM in MeCN) added dropwise over 10 h to PyBOP/DMAP in MeCN, further 3 h stirring. To be noted: the molecule shown is the open-chain precursor; 15-membered ring; CH3CN; 1.0 mM; 20.0 °C; 13.0 h.

In the case of “Cyclo(Me-L-Leu-L-Leu-D-cyclohexyl-Gly-Me-L-Leu-L-Leu)”, the ring closure, isolated yield in data set [1] is 51%.

As for `CN[C@H](CC(C)C)C(=O)N[C@H](CC(C)C)C(=O)N[C@H](CC(C)C)C(=O)N(C)[C@H](CC(C)C)C(=O)N[C@H](CC(C)C)C(=O)O` [H-D-N(Me)Leu-D-Leu-D-Leu-D-N(Me)Leu-D-Leu-OH], the ring closure, isolated yield in data set [2] came to 48%.

“Cyclo(Me-L-Leu-L-Leu-D-Met-Me-L-Leu-L-Leu)”: in data set [1], the ring closure, isolated yield amounted to 52%.

For the molecule `CN[C@@H](CC(C)C)C(=O)N[C@@H](CC(C)C)C(=O)N[C@@H](C(=O)N(C)[C@@H](CC(C)C)C(=O)N[C@@H](CC(C)C)C(=O)O)C(C)C` [H-N(Me)Leu-Leu-D-Val-N(Me)Leu-Leu-OH], the ring closure, isolated yield in data set [2] is 50%.

Turning to `CN[C@@H](CC(C)C)C(=O)N[C@@H](CC(C)C)C(=O)N1CCC[C@@H]1C(=O)N(C)[C@@H](CC(C)C)C(=O)N[C@@H](CC(C)C)C(=O)O` [H-N(Me)Leu-Leu-D-Pro-N(Me)Leu-Leu-OH], in data set [2], the ring closure, isolated yield stood at 51%.

For the molecule `CN[C@@H](CC(C)C)C(=O)N[C@H](CC(C)C)C(=O)N[C@H](CC(C)C)C(=O)N(C)[C@@H](CC(C)C)C(=O)N[C@H](CC(C)C)C(=O)O` [H-N(Me)Leu-D-Leu-D-Leu-N(Me)Leu-D-Leu-OH], the ring closure, isolated yield in data set [2] is 54%.

For the molecule “Cyclo(Me-L-Leu-L-Leu-D-Pro-Me-L-Leu-L-Leu)”, the ring closure, isolated yield in data set [1] came to 51%.

Turning to `CN[C@@H](CC(C)C)C(=O)N[C@@H](CC(C)C)C(=O)N[C@H](CC(C)C)C(=O)N(C)[C@@H](CC(C)C)C(=O)N[C@@H](CC(C)C)C(=O)O` [H-N(Me)Leu-Leu-D-Leu-N(Me)Leu-Leu-OH], the ring closure, isolated yield in data set [2] is 45%.

As for `CN[C@@H](CC(C)C)C(=O)N[C@@H](CC(C)C)C(=O)N[C@H](CCSC)C(=O)N(C)[C@@H](CC(C)C)C(=O)N[C@@H](CC(C)C)C(=O)O` [H-N(Me)Leu-Leu-D-Met-N(Me)Leu-Leu-OH], the ring closure, isolated yield in data set [2] was determined as 52%.

Turning to `CN[C@@H](CC(C)C)C(=O)N[C@@H](CC(C)C)C(=O)N[C@H](C)C(=O)N(C)[C@@H](CC(C)C)C(=O)N[C@@H](CC(C)C)C(=O)O` [H-N(Me)Leu-Leu-D-Ala-N(Me)Leu-Leu-OH], in data set [2], the ring closure, isolated yield came out at 49%.

The molecule “Cyclo(Me-L-Leu-D-Leu-L-Leu-Me-L-Leu-D-Leu)” had a ring closure, isolated yield in data set [1] of 45%.

Consider `CN[C@@H](CC(C)C)C(=O)N[C@@H](CC(C)C)C(=O)N[C@H](Cc1ccc(Br)cc1)C(=O)N(C)[C@@H](CC(C)C)C(=O)N[C@@H](CC(C)C)C(=O)O` [H-N(Me)Leu-Leu-D-Phe(4-Br)-N(Me)Leu-Leu-OH], for which the ring closure, isolated yield in data set [2] came out at 55%.

For `CN[C@@H](CC(C)C)C(=O)N[C@@H](CC(C)C)C(=O)N[C@H](CC(=O)OC)C(=O)N(C)[C@@H](CC(C)C)C(=O)N[C@@H](CC(C)C)C(=O)O` [H-N(Me)Leu-Leu-D-Asp(OMe)-N(Me)Leu-Leu-OH], the ring closure, isolated yield in data set [2] is 52%.

In turn, “Cyclo(Me-D-Leu-D-Leu-D-Leu-Me-D-Leu-D-Leu)” came in with a ring closure, isolated yield in data set [1] of 48%.

Regarding “Cyclo(Me-L-Leu-D-Leu-D-Leu-Me-L-Leu-D-Leu)”, the ring closure, isolated yield in data set [1] is 54%.

In data set [1], “Cyclo(Me-D-Leu-L-Leu-L-Leu-Me-D-Leu-L-Leu)” had a ring closure, isolated yield of 48%.

As to `CN[C@@H](CC(C)C)C(=O)N[C@@H](CC(C)C)C(=O)N[C@@H](C(=O)N(C)[C@@H](CC(C)C)C(=O)N[C@@H](CC(C)C)C(=O)O)C1CCCCC1` [H-N(Me)Leu-Leu-D-Chg-N(Me)Leu-Leu-OH], in data set [2], the ring closure, isolated yield was determined as 51%.

“Cyclo(Me-L-Leu-L-Leu-4-Chl-D-Phe-Me-L-Leu-L-Leu)” came in with a ring closure, isolated yield in data set [1] of 55%.

“Cyclo(Me-L-Leu-L-Leu-D-Phe-Me-L-Leu-L-Leu)” came in with a ring closure, isolated yield in data set [1] of 51%.

As to `CN[C@@H](CC(C)C)C(=O)N[C@@H](CC(C)C)C(=O)N[C@H](Cc1ccccc1)C(=O)N(C)[C@@H](CC(C)C)C(=O)N[C@@H](CC(C)C)C(=O)O` [H-N(Me)Leu-Leu-D-Phe-N(Me)Leu-Leu-OH], the ring closure, isolated yield in data set [2] is 51%.

On to `CN[C@H](CC(C)C)C(=O)N[C@H](CC(C)C)C(=O)N[C@@H](CC(C)C)C(=O)N(C)[C@H](CC(C)C)C(=O)N[C@H](CC(C)C)C(=O)O` [H-D-N(Me)Leu-D-Leu-Leu-D-N(Me)Leu-D-Leu-OH], for which, in data set [2], the ring closure, isolated yield came out at 50%.

Regarding “Cyclo(Me-L-Leu-L-Leu-O-Me-D-Ser-Me-L-Leu-L-Leu)”, the ring closure, isolated yield in data set [1] came to 52%.

Regarding `CN[C@@H](CC(C)C)C(=O)N[C@@H](CC(C)C)C(=O)N[C@H](Cc1ccc(Cl)cc1)C(=O)N(C)[C@@H](CC(C)C)C(=O)N[C@@H](CC(C)C)C(=O)O` [H-N(Me)Leu-Leu-D-Phe(4-Cl)-N(Me)Leu-Leu-OH], the ring closure, isolated yield in data set [2] amounted to 55%.

In the case of “Cyclo(Me-L-Leu-L-Leu-Gly-Me-L-Leu-L-Leu)”, the ring closure, isolated yield in data set [1] is 51%.

In turn, “Cyclo(Me-L-Leu-L-Leu-Methylester-D-Asp-Me-L-Leu-L-Leu)” had a ring closure, isolated yield in data set [1] of 52%.

Consider `CN[C@@H](CC(C)C)C(=O)N[C@H](CC(C)C)C(=O)N[C@@H](CC(C)C)C(=O)N(C)[C@@H](CC(C)C)C(=O)N[C@H](CC(C)C)C(=O)O` [H-N(Me)Leu-D-Leu-Leu-N(Me)Leu-D-Leu-OH], for which, in data set [2], the ring closure, isolated yield worked out at 45%.

For `CN[C@@H](CC(C)C)C(=O)N[C@@H](CC(C)C)C(=O)N[C@H](COC)C(=O)N(C)[C@@H](CC(C)C)C(=O)N[C@@H](CC(C)C)C(=O)O` [H-N(Me)Leu-Leu-D-Ser(OMe)-N(Me)Leu-Leu-OH], the ring closure, isolated yield in data set [2] was found to be 52%.

As for “Cyclo(Me-D-Leu-L-Leu-D-Leu-Me-D-Leu-L-Leu)”, the ring closure, isolated yield in data set [1] was determined as 45%.

“Cyclo(Me-L-Leu-L-Leu-D-Leu-Me-L-Leu-L-Leu)” registered a ring closure, isolated yield in data set [1] of 45%.

As to “Cyclo(Me-D-Leu-D-Leu-L-Leu-Me-D-Leu-D-Leu)”, in data set [1], the ring closure, isolated yield was 50%.

For the molecule “Cyclo(Me-L-Leu-L-Leu-D-phenyl-Gly-Me-L-Leu-L-Leu)”, the ring closure, isolated yield in data set [1] came to 51%.

Molecule “Cyclo(Me-L-Leu-L-Leu-O-Tyr-Me-L-Leu-L-Leu)” displayed a ring closure, isolated yield in data set [1] of 52%.

`CN[C@@H](CC(C)C)C(=O)N[C@@H](CC(C)C)C(=O)N[C@H](Cc1ccc(C)cc1)C(=O)N(C)[C@@H](CC(C)C)C(=O)N[C@@H](CC(C)C)C(=O)O` [H-N(Me)Leu-Leu-D-Phe(4-Me)-N(Me)Leu-Leu-OH]: the ring closure, isolated yield in data set [2] stood at 50%.

For the molecule `CN[C@H](CC(C)C)C(=O)N[C@@H](CC(C)C)C(=O)N[C@H](CC(C)C)C(=O)N(C)[C@H](CC(C)C)C(=O)N[C@@H](CC(C)C)C(=O)O` [H-D-N(Me)Leu-Leu-D-Leu-D-N(Me)Leu-Leu-OH], the ring closure, isolated yield in data set [2] was found to be 45%.

“Cyclo(Me-L-Leu-L-Leu-2-Me-D-Phe-Me-L-Leu-L-Leu)” showed a ring closure, isolated yield in data set [1] of 53%.

Regarding “Cyclo(Me-L-Leu-L-Leu-4-Bro-D-Phe-Me-L-Leu-L-Leu)”, the ring closure, isolated yield in data set [1] came out at 55%.

With `CN[C@@H](CC(C)C)C(=O)N[C@@H](CC(C)C)C(=O)N[C@H](Cc1ccccc1C)C(=O)N(C)[C@@H](CC(C)C)C(=O)N[C@@H](CC(C)C)C(=O)O` [H-N(Me)Leu-Leu-D-Phe(2-Me)-N(Me)Leu-Leu-OH], the ring closure, isolated yield in data set [2] turned out to be 53%.

Regarding `CN[C@@H](CC(C)C)C(=O)N[C@@H](CC(C)C)C(=O)N[C@H](Cc1ccc(OC)cc1)C(=O)N(C)[C@@H](CC(C)C)C(=O)N[C@@H](CC(C)C)C(=O)O` [H-N(Me)Leu-Leu-D-Tyr(OMe)-N(Me)Leu-Leu-OH], in data set [2], the ring closure, isolated yield worked out at 52%.

Consider “Cyclo(Me-L-Leu-L-Leu-3-Me-D-Phe-Me-L-Leu-L-Leu)”, for which the ring closure, isolated yield in data set [1] was 53% and 50%.

For the molecule “Cyclo(Me-L-Leu-L-Leu-D-Ala-Me-L-Leu-L-Leu)”, the ring closure, isolated yield in data set [1] came to 49%.

For `CN[C@H](CC(C)C)C(=O)N[C@@H](CC(C)C)C(=O)N[C@@H](CC(C)C)C(=O)N(C)[C@H](CC(C)C)C(=O)N[C@@H](CC(C)C)C(=O)O` [H-D-N(Me)Leu-Leu-Leu-D-N(Me)Leu-Leu-OH], the ring closure, isolated yield in data set [2] is 48%.

In the case of “Cyclo(Me-L-Leu-L-Leu-D-Val-Me-L-Leu-L-Leu)”, in data set [1], the ring closure, isolated yield came out at 50%.

As to `CN[C@@H](CC(C)C)C(=O)N[C@@H](CC(C)C)C(=O)N[C@H](Cc1cccc(F)c1)C(=O)N(C)[C@@H](CC(C)C)C(=O)N[C@@H](CC(C)C)C(=O)O` [H-N(Me)Leu-Leu-D-Phe(3-F)-N(Me)Leu-Leu-OH], in data set [2], the ring closure, isolated yield came out at 53%.

On to `CN[C@@H](CC(C)C)C(=O)N[C@@H](CC(C)C)C(=O)N[C@@H](C(=O)N(C)[C@@H](CC(C)C)C(=O)N[C@@H](CC(C)C)C(=O)O)c1ccccc1` [H-N(Me)Leu-Leu-D-Phg-N(Me)Leu-Leu-OH], for which, in data set [2], the ring closure, isolated yield is 51%.

In the case of “Cyclo(Me-L-Leu-L-Leu-3-Flu-D-Phe-Me-L-Leu-L-Leu)”, in data set [1], the ring closure, isolated yield is 53%.

For `CN[C@@H](CC(C)C)C(=O)N[C@@H](CC(C)C)C(=O)NCC(=O)N(C)[C@@H](CC(C)C)C(=O)N[C@@H](CC(C)C)C(=O)O` [H-N(Me)Leu-Leu-Gly-N(Me)Leu-Leu-OH], the ring closure, isolated yield in data set [2] is 51%.

As to `CN[C@@H](CC(C)C)C(=O)N[C@@H](CC(C)C)C(=O)N[C@H](Cc1cccc(C)c1)C(=O)N(C)[C@@H](CC(C)C)C(=O)N[C@@H](CC(C)C)C(=O)O` [H-N(Me)Leu-Leu-D-Phe(3-Me)-N(Me)Leu-Leu-OH], the ring closure, isolated yield in data set [2] amounted to 53%.
